Laboratory results from US20260306642A1, “STAT DEGRADERS AND USES THEREOF” (Recludix Pharma, Inc., priority 2023, published 2026).
Like-named read-outs stand apart in the source and are kept apart here.

How the values were obtained:
STAT6 = target: T1, STAT6 (Homo sapiens, UniProt P42226); assay: STAT6 Fluorescence Polarization (FP) Assay; format: binding
T1 construct: Recombinant STAT6 protein (STAT6(W123-T658))
T1 sequence (P42226 123-658): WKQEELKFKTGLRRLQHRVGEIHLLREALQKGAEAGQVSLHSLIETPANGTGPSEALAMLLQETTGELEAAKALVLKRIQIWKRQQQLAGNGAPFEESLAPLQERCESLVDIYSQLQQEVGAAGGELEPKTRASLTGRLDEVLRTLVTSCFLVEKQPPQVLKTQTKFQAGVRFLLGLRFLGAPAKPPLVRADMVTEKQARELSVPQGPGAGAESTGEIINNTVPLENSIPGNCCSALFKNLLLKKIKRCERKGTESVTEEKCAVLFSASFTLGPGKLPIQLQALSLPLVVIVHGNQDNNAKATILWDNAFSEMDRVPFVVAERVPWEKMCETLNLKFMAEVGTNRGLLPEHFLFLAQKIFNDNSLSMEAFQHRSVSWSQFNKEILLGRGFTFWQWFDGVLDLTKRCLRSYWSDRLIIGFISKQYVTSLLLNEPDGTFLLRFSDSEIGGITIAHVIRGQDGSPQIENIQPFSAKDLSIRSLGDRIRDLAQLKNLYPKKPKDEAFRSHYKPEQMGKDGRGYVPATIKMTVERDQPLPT
Summary of the method: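 STAT6(W123-T658) at 250 nM with 2 nM 5-FAM-ApYKPFQDLI-NH2 probe in HEPES pH 7.4, 50 mM NaCl, EDTA, Tween 20, DTT, 1% DMSO. FP read after 45 min at room temperature; IC50 from nonlinear fit of mP versus log concentration.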

STAT3 = target: T2, STAT3 (Homo sapiens, UniProt P40763); assay: STAT3 Fluorescence Polarization (FP) Assay; format: binding
T2 construct: Recombinant STAT3 protein (STAT3(G127-I722))
T2 sequence (P40763 127-722): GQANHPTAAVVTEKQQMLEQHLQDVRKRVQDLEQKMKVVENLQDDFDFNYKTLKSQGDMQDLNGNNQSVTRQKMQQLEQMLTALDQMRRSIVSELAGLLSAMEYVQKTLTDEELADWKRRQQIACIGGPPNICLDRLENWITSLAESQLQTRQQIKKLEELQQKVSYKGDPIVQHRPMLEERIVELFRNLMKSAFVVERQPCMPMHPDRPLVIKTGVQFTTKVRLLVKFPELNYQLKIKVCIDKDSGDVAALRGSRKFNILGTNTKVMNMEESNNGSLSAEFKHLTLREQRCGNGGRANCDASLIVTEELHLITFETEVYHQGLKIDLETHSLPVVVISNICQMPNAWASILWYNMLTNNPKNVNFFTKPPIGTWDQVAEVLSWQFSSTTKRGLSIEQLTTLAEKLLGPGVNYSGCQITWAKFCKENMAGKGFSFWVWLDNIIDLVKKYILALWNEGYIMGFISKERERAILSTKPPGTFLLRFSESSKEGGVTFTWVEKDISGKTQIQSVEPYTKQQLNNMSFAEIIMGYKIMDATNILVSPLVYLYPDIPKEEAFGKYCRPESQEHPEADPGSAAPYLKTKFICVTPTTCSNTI
Summary of the method: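 Recombinant STAT3 (G127–I722, 25 nM) was mixed with 2 nM 5-FAM-GpYLPQTV-NH2 probe in HEPES pH 7.4 buffer with 1% DMSO and serially diluted compound. Fluorescence polarization was read after 45 min at room temperature. IC50 came from nonlinear regression of mP versus log concentration and was binned A (≤100 nM), B (>100–1000 nM), C (>1–10 μM) or D (>10 μM).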

pSTAT6 = target: T3, pSTAT6 (Homo sapiens, UniProt P42226); assay: MSD-pSTAT-PBMC Assay (pSTAT6, IL-4 stimulated); format: cell-based
T3 sequence (P42226 1-847): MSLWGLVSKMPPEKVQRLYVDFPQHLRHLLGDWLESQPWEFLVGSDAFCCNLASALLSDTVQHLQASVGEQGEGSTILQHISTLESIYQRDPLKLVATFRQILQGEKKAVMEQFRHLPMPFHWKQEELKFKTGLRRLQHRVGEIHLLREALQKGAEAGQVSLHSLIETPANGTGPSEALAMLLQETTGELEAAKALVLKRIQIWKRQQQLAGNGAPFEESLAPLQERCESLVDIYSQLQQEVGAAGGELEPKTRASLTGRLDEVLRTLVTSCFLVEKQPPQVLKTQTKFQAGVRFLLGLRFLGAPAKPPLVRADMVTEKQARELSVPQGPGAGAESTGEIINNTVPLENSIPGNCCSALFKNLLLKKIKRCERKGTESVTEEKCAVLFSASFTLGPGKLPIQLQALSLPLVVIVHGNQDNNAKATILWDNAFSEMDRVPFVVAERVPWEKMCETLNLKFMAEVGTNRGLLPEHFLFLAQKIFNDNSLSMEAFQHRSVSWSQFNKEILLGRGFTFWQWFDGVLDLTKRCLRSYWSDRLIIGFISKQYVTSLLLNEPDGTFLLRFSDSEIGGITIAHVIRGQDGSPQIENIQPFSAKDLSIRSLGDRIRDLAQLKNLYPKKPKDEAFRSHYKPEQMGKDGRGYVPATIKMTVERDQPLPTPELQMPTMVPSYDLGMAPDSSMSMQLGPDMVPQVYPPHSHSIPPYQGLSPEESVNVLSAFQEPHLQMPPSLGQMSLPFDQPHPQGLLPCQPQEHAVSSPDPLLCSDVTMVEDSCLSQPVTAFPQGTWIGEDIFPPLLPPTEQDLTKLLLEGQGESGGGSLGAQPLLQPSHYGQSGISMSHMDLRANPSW
Source text: Cryopreserved Peripheral Blood Mononuclear Cells (PBMC) are from AllCells. Recombinant Human IL-4 and IL-6 are from Peprotech. Mouse monoclonal anti-STAT3 antibody, rabbit monoclonal anti-pY705-STAT3 antibody, rabbit monoclonal Anti-pY641-STAT6 antibody, and lysis buffer are from Cell Signaling Technology (CST). Mouse monoclonal anti-STAT6 antibody is from BioLegend. Assay plates, blocker, and anti-rabbit secondary antibody are from Meso Scale Discovery (MSD).
Cryopreserved PBMCs were thawed out and allowed to recover overnight in IMDM+10% heat-inactivated FBS prior to plating 50,000 (STAT3) or 25,000 (STAT6) cells per well in 96-well U-bottom tissue culture plates. Cells were treated with compound for 3 hrs, then stimulated with 10 ng/mL IL-6 (STAT3) or 1 ng/mL IL-4 (STAT6) for 10 min. Cells were then spun down and washed with ice-cold PBS prior to lysing the cell pellet with 1× lysis buffer (CST) with 1× HALT protease and phosphatase inhibitor cocktail (Thermo). Lysates were transferred to and incubated overnight at 4° C. with shaking in QuickPlex 96-well high bind assay plates (MSD) pre-coated overnight with 30 μL per well of […] mouse monoclonal anti-STAT3 antibody (STAT3) or 2 μg/mL mouse monoclonal anti-STAT6 antibody (STAT6) in 1× PBS, and pre-blocked for 1 hour with 3% Blocker-A (MSD). Captured protein in the assay plates were then washed and probed with 25 μL per well of […] rabbit monoclonal anti-pY705-STAT3 antibody (STAT3) or […] rabbit monoclonal Anti-pY641-STAT6 antibody (STAT6) in 1% Blocker-A for 1 hour at room temperature with shaking, then washed and probed with 25 ul per well of 1 ug/ml Sulfo-TAG Labeled Goat Anti-Rabbit Antibody (MSD) in 1% Blocker-A for 1 hour at room temperature with shaking. Assay plates were then washed and 150 μL of 1× Read Buffer-T (MSD) was added to each well prior to reading on an SQ120 MSD Plate Reader. Assay signal from each sample was subtracted by the signal from unstimulated control wells and normalized to DMSO control wells. IC50 values were calculated using Graph Pad Prism Dose-Response Nonlinear Regression with variable slope. For both pSTAT3 and pSTAT6 A=≤100 nM; B=>100-1000 nM; C=>1000-3000 nM; and D=>3 μM.

[1] = compound 3 hrs, then 1 ng/mL IL-4 10 min, pY641-STAT6, read-out: pSTAT6 IC50

Structure (SMILES)	IC50 (STAT6)	IC50 (STAT3)	IC50 (pSTAT6; [1])	IC50 (pSTAT6; read-out: pSTAT6 IC50, compound 3 hrs, then 1 ng/mL IL-4 10 min, pY641-STAT6)
N#CC1CN(C(=O)C2CCC3CCCCC(NC(=O)c4cc5cc(C(F)(F)P(=O)(O)O)ccc5s4)C(=O)N32)CC1c1cccc(OCCOCCOc2cccc3c2CN(C2CCC(=O)NC2=O)C3=O)c1 [Compound 16, ((2-(((3S,6S,10aS)-3-((rel-3S,4R)-3-cyano-4-(3-(2-(2-((2-(2,6-dioxopiperidin-3-yl)-1-oxoisoindolin-4-yl)oxy)ethoxy)ethoxy)phenyl)pyrrolidine-1-carbonyl)-5-oxodecahydropyrrolo[1,2-a]azocin-6-yl)carbamoyl)benzo[b]thiophen-5-yl)difluoromethyl)phosphonic acid]	0.3 to 3 µM	0.1 to 1 µM	1 to 3 µM	
N#C[C@@H]1CN(C(=O)[C@@H]2CC[C@@H]3CCCC[C@H](NC(=O)c4cc5cc(C(F)(F)P(=O)(O)O)ccc5s4)C(=O)N32)C[C@H]1c1cccc(OCCCCOc2ccc(C3CCC(=O)NC3=O)cc2)c1 (mixture of isomers) [Compound 3, trans-((2-(((3S,6S,10aS)-3-(3-cyano-4-(3-(4-(4-(2,6-dioxopiperidin-3-yl)phenoxy)butoxy)phenyl)pyrrolidine-1-carbonyl)-5-oxodecahydropyrrolo[1,2-a]azocin-6-yl)carbamoyl)benzo[b]thiophen-5-yl)difluoromethyl)phosphonic acid]	< 0.3 µM	0.1 to 1 µM	1 to 3 µM	
O=C1CCC(c2ccc(OCCCCCOc3cc([C@@H]4CN(C(=O)[C@@H]5CC[C@@H]6CCCC[C@H](NC(=O)c7cc8cc(C(F)(F)P(=O)(O)O)ccc8s7)C(=O)N65)C5(CC5)C4)ccn3)cc2)C(=O)N1 (stereo partly drawn) [Compound 19, ((2-(((3S,6S,10aS)-3-((6R)-6-(2-((5-(4-(2,6-dioxopiperidin-3-yl)phenoxy)pentyl)oxy)pyridin-4-yl)-4-azaspiro[2.4]heptane-4-carbonyl)-5-oxodecahydropyrrolo[1,2-a]azocin-6-yl)carbamoyl)benzo[b]thiophen-5-yl)difluoromethyl)phosphonic acid]	0.3 to 3 µM	1 to 10 µM	> 3 µM	
CCCC(=O)SCCOP(=O)(OCCSC(=O)CCC)C(F)(F)c1ccc2sc(C(=O)N[C@H]3CCCC[C@H]4CC[C@@H](C(=O)N5C[C@@H](c6ccn(CCCCCOc7ccc(C8CCC(=O)NC8=O)cc7)c(=O)c6)CC56CC6)N4C3=O)cc2c1 (stereo partly drawn) [Compound 18, S,S(((((2-(((3S,6S,10aS)-3-((6R)-6-(1-(5-(4-(2,6-dioxopiperidin-3-yl)phenoxy)pentyl)-2-oxo-1,2-dihydropyridin-4-yl)-4-azaspiro[2.4]heptane-4-carbonyl)-5-oxodecahydropyrrolo[1,2-a]azocin-6-yl)carbamoyl)benzo[b]thiophen-5-yl)difluoromethyl)phosphoryl)bis(oxy))bis(ethane-2,1-diyl)) dibutanethioate]			< 0.1 µM	
CCCC(=O)SCCOP(=O)(OCCSC(=O)CCC)C(F)(F)c1ccc2sc(C(=O)NC3CCCCC4CCC(C(=O)N5CC(C#N)C(c6cccc(OCCCCOc7ccc(C8CCC(=O)NC8=O)cc7)c6)C5)N4C3=O)cc2c1 [Compound 4, trans-S,S(((((2-(((3S,6S,10aS)-3-(3-cyano-4-(3-(4-(4-(2,6-dioxopiperidin-3-yl)phenoxy)butoxy)phenyl)pyrrolidine-1-carbonyl)-5-oxodecahydropyrrolo[1,2-a]azocin-6-yl)carbamoyl)benzo[b]thiophen-5-yl)difluoromethyl)phosphoryl)bis(oxy))bis(ethane-2,1-diyl)) dibutanethioate]			< 0.1 µM	
CCCC(=O)SCCOP(=O)(OCCSC(=O)CCC)C(F)(F)c1ccc2sc(C(=O)NC3CCCCC4CCC(C(=O)N5CC(C#N)C(c6cccc(OCCOCCOc7cccc8c7CN(C7CCC(=O)NC7=O)C8=O)c6)C5)N4C3=O)cc2c1 [Compound 15, S,S(((((2-(((3S,6S,10aS)-3-((rel-3S,4R)-3-cyano-4-(3-(2-(2-((2-(2,6-dioxopiperidin-3-yl)-1-oxoisoindolin-4-yl)oxy)ethoxy)ethoxy)phenyl)pyrrolidine-1-carbonyl)-5-oxodecahydropyrrolo[1,2-a]azocin-6-yl)carbamoyl)benzo[b]thiophen-5-yl)difluoromethyl)phosphoryl)bis(oxy))bis(ethane-2,1-diyl)) dibutanethioate]			< 0.1 µM	
CCCC(=O)SCCOP(=O)(OCCSC(=O)CCC)C(F)(F)c1ccc2sc(C(=O)NC3CCCCC4CCC(C(=O)N5CC(C#N)C(c6cccc(N7CCN(c8ccc9c(c8)[nH]c(=O)n9C8CCC(=O)NC8=O)CC7)c6)C5)N4C3=O)cc2c1 [Compound 23, S,S(((((2-(((3S,6S,10aS)-3-((rel-3S,4R)-3-cyano-4-(3-(4-(1-(2,6-dioxopiperidin-3-yl)-2-oxo-2,3-dihydro-1H-benzo[d]imidazol-5-yl)piperazin-1-yl)phenyl)pyrrolidine-1-carbonyl)-5-oxodecahydropyrrolo[1,2-a]azocin-6-yl)carbamoyl)benzo[b]thiophen-5-yl)difluoromethyl)phosphoryl)bis(oxy))bis(ethane-2,1-diyl)) dibutanethioate]				< 0.1 µM
CCCC(=O)SCCOP(=O)(OCCSC(=O)CCC)C(F)(F)c1ccc2sc(C(=O)N[C@H]3CCCC[C@H]4CC[C@@H](C(=O)N5C[C@@H](c6ccn(CCCCCCC#Cc7cccc8c7CN(C7CCC(=O)NC7=O)C8=O)c(=O)c6)CC56CC6)N4C3=O)cc2c1 (stereo partly drawn) [Compound 6, S,S((((2-(((3S,6S,10aS)-3-((6R)-6-(1-(8-(2-(2,6-dioxopiperidin-3-yl)-1-oxoisoindolin-4-yl)oct-7-yn-1-yl)-2-oxo-1,2-dihydropyridin-4-yl)-4-azaspiro[2.4]heptane-4-carbonyl)-5-oxodecahydropyrrolo[1,2-a]azocin-6-yl)carbamoyl)benzo[b]thiophen-5-yl)difluoromethyl)phosphoryl)bis(oxy))bis(ethane-2,1-diyl)) dibutanethioate]			< 0.1 µM	
